Laboratory results taken from ChEMBL document CHEMBL3232964, “Quinone-carbohydrate nonglucoside conjugates as a new type of cytotoxic agents: synthesis and determination of in vitro activity” (Eur J Med Chem, 2014).
Active and inactive are the calls of the source. The calls are words filed in the database; no cut-off is given here.

Columns and labels:
[1] = molecular target: Cellular tumor antigen p53 (Mus musculus) (UniProt P02340); experiment: Inhibition of p53-dependent transcriptional activity in tumor promotion-sensitive mouse JB6 Cl41 cells after 12 hrs by luciferase-based method; assay type: cell-based
[2] = test system: HeLa; experiment: Cytotoxicity against human HeLa cells assessed as cell viability after 24 hrs by MTS assay; assay type: functional, cell-based
[3] = test system: HeLa; experiment: Cytotoxicity against human HeLa cells assessed as cell viability after 48 hrs by MTS assay; assay type: functional, cell-based
[4] = Cytotoxicity against tumor promotion-sensitive mouse JB6 Cl41 cells assessed as cell viability after 48 hrs by MTS assay; assay type: cell-based; details: JB6 Cl41, 48 h
[5] = test system: HeLa; experiment: Cytotoxicity against human HeLa cells assessed as inhibition of number of colonies formed in soft agar after 14 days by microscopic analysis; assay type: functional
[6] = test system: HeLa; experiment: Ratio of IC50 to INCC50 for human HeLa cells; assay type: functional
[7] = Cytotoxicity against tumor promotion-sensitive mouse JB6 Cl41 cells expressing luciferase reporter gene assessed as cell viability after 12 hrs by MTS assay; assay type: cell-based; details: jb6 cl41, 12 h
[8] = Induction of apoptosis in tumor promotion-sensitive mouse JB6 Cl41 cells assessed as viable cells at 2.5 uM after 24 hrs by Annexin-V-FITC/propidium iodide staining based flow cytometry (reference value: 94.33 +/- 0.87%); assay type: cell-based; details: read-out: Activity
[9] = Induction of apoptosis in tumor promotion-sensitive mouse JB6 Cl41 cells assessed as dead cells at 2.5 uM after 24 hrs by Annexin-V-FITC/propidium iodide staining based flow cytometry (reference value: 2.99 +/- 0.82%); assay type: cell-based; details: jb6 cl41, 24 h
[10] = Induction of apoptosis in tumor promotion-sensitive mouse JB6 Cl41 cells assessed as early apoptotic cells at 5 uM after 24 hrs by Annexin-V-FITC/propidium iodide staining based flow cytometry (reference value: 2.15 +/- 1.18%); assay type: cell-based; details: jb6 cl41, 24 h
[11] = Induction of apoptosis in tumor promotion-sensitive mouse JB6 Cl41 cells assessed as late apoptotic/necrotic cells at 5 uM after 24 hrs by Annexin-V-FITC/propidium iodide staining based flow cytometry (reference value: 0.53 +/- 0.47%); assay type: cell-based; details: jb6 cl41, 24 h
[12] = Induction of apoptosis in tumor promotion-sensitive mouse JB6 Cl41 cells assessed as viable cells at 5 uM after 24 hrs by Annexin-V-FITC/propidium iodide staining based flow cytometry (reference value: 94.33 +/- 0.87%); assay type: cell-based; details: read-out: Activity
[13] = Induction of apoptosis in tumor promotion-sensitive mouse JB6 Cl41 cells assessed as dead cells at 5 uM after 24 hrs by Annexin-V-FITC/propidium iodide staining based flow cytometry (reference value: 2.99 +/- 0.82%); assay type: cell-based; details: jb6 cl41, 24 h
[14] = test system: HeLa; experiment: Induction of p53-independent apoptosis in human HeLa cells assessed as early apoptotic cells at 2.5 uM after 24 hrs by Annexin-V-FITC/propidium iodide double staining based flow cytometry (reference value: 6.71 +/- 4.41%); assay type: functional
[15] = test system: HeLa; experiment: Induction of p53-independent apoptosis in human HeLa cells assessed as late apoptotic/necrotic cells at 2.5 uM after 24 hrs by Annexin-V-FITC/propidium iodide double staining based flow cytometry (reference value: 0.88 +/- 0.72%); assay type: functional
[16] = test system: HeLa; experiment: Induction of p53-independent apoptosis in human HeLa cells assessed as viable cells at 2.5 uM after 24 hrs by Annexin-V-FITC/propidium iodide double staining based flow cytometry (reference value: 88.52 +/- 11%); assay type: functional; details: read-out: Activity
[17] = test system: HeLa; experiment: Induction of p53-independent apoptosis in human HeLa cells assessed as dead cells at 2.5 uM after 24 hrs by Annexin-V-FITC/propidium iodide double staining based flow cytometry (reference value: 3.89 +/- 0.3%); assay type: functional
[18] = test system: HeLa; experiment: Induction of p53-independent apoptosis in human HeLa cells assessed as early apoptotic cells at 5 uM after 24 hrs by Annexin-V-FITC/propidium iodide double staining based flow cytometry (reference value: 6.71 +/- 4.41%); assay type: functional
[19] = test system: HeLa; experiment: Induction of p53-independent apoptosis in human HeLa cells assessed as late apoptotic/necrotic cells at 5 uM after 24 hrs by Annexin-V-FITC/propidium iodide double staining based flow cytometry (reference value: 0.88 +/- 0.72%); assay type: functional
[20] = test system: HeLa; experiment: Induction of p53-independent apoptosis in human HeLa cells assessed as viable cells at 5 uM after 24 hrs by Annexin-V-FITC/propidium iodide double staining based flow cytometry (reference value: 88.52 +/- 11%); assay type: functional; details: read-out: Activity
[21] = test system: HeLa; experiment: Induction of p53-independent apoptosis in human HeLa cells assessed as dead cells at 5 uM after 24 hrs by Annexin-V-FITC/propidium iodide double staining based flow cytometry (reference value: 3.89 +/- 0.3%); assay type: functional
[22] = Induction of apoptosis in tumor promotion-sensitive mouse JB6 Cl41 cells assessed as early apoptotic cells at 2.5 uM after 24 hrs by Annexin-V-FITC/propidium iodide staining based flow cytometry (reference value: 2.15 +/- 1.18%); assay type: cell-based; details: jb6 cl41, 24 h
[23] = Induction of apoptosis in tumor promotion-sensitive mouse JB6 Cl41 cells assessed as late apoptotic/necrotic cells at 2.5 uM after 24 hrs by Annexin-V-FITC/propidium iodide staining based flow cytometry (reference value: 0.53 +/- 0.47%); assay type: cell-based; details: jb6 cl41, 24 h
[24] = Induction of apoptosis in tumor promotion-sensitive mouse JB6 Cl41 cells assessed as early apoptotic cells at 10 uM after 24 hrs by Annexin-V-FITC/propidium iodide staining based flow cytometry (reference value: 2.15 +/- 1.18%); assay type: cell-based; details: jb6 cl41, 24 h
[25] = Induction of apoptosis in tumor promotion-sensitive mouse JB6 Cl41 cells assessed as late apoptotic/necrotic cells at 10 uM after 24 hrs by Annexin-V-FITC/propidium iodide staining based flow cytometry (reference value: 0.53 +/- 0.47%); assay type: cell-based; details: jb6 cl41, 24 h
[26] = Induction of apoptosis in tumor promotion-sensitive mouse JB6 Cl41 cells assessed as viable cells at 10 uM after 24 hrs by Annexin-V-FITC/propidium iodide staining based flow cytometry (reference value: 94.33 +/- 0.87%); assay type: cell-based; details: read-out: Activity
[27] = Induction of apoptosis in tumor promotion-sensitive mouse JB6 Cl41 cells assessed as dead cells at 10 uM after 24 hrs by Annexin-V-FITC/propidium iodide staining based flow cytometry (reference value: 2.99 +/- 0.82%); assay type: cell-based; details: jb6 cl41, 24 h
[28] = test system: HeLa; experiment: Induction of p53-independent apoptosis in human HeLa cells assessed as early apoptotic cells at 10 uM after 24 hrs by Annexin-V-FITC/propidium iodide double staining based flow cytometry (reference value: 6.71 +/- 4.41%); assay type: functional
[29] = test system: HeLa; experiment: Induction of p53-independent apoptosis in human HeLa cells assessed as late apoptotic/necrotic cells at 10 uM after 24 hrs by Annexin-V-FITC/propidium iodide double staining based flow cytometry (reference value: 0.88 +/- 0.72%); assay type: functional
[30] = test system: HeLa; experiment: Induction of p53-independent apoptosis in human HeLa cells assessed as viable cells at 10 uM after 24 hrs by Annexin-V-FITC/propidium iodide double staining based flow cytometry (reference value: 88.52 +/- 11%); assay type: functional; details: read-out: Activity
[31] = test system: HeLa; experiment: Induction of p53-independent apoptosis in human HeLa cells assessed as dead cells at 10 uM after 24 hrs by Annexin-V-FITC/propidium iodide double staining based flow cytometry (reference value: 3.89 +/- 0.3%); assay type: functional
[32] = Induction of apoptosis in tumor promotion-sensitive mouse JB6 Cl41 cells assessed as early apoptotic cells at 20 uM after 24 hrs by Annexin-V-FITC/propidium iodide staining based flow cytometry (reference value: 2.15 +/- 1.18%); assay type: cell-based; details: jb6 cl41, 24 h
[33] = Induction of apoptosis in tumor promotion-sensitive mouse JB6 Cl41 cells assessed as late apoptotic/necrotic cells at 20 uM after 24 hrs by Annexin-V-FITC/propidium iodide staining based flow cytometry (reference value: 0.53 +/- 0.47%); assay type: cell-based; details: jb6 cl41, 24 h
[34] = Induction of apoptosis in tumor promotion-sensitive mouse JB6 Cl41 cells assessed as viable cells at 20 uM after 24 hrs by Annexin-V-FITC/propidium iodide staining based flow cytometry (reference value: 94.33 +/- 0.87%); assay type: cell-based; details: read-out: Activity
[35] = Induction of apoptosis in tumor promotion-sensitive mouse JB6 Cl41 cells assessed as dead cells at 20 uM after 24 hrs by Annexin-V-FITC/propidium iodide staining based flow cytometry (reference value: 2.99 +/- 0.82%); assay type: cell-based; details: jb6 cl41, 24 h
[36] = test system: HeLa; experiment: Induction of p53-independent apoptosis in human HeLa cells assessed as early apoptotic cells at 20 uM after 24 hrs by Annexin-V-FITC/propidium iodide double staining based flow cytometry (reference value: 6.71 +/- 4.41%); assay type: functional
[37] = test system: HeLa; experiment: Induction of p53-independent apoptosis in human HeLa cells assessed as late apoptotic/necrotic cells at 20 uM after 24 hrs by Annexin-V-FITC/propidium iodide double staining based flow cytometry (reference value: 0.88 +/- 0.72%); assay type: functional
[38] = test system: HeLa; experiment: Induction of p53-independent apoptosis in human HeLa cells assessed as viable cells at 20 uM after 24 hrs by Annexin-V-FITC/propidium iodide double staining based flow cytometry (reference value: 88.52 +/- 11%); assay type: functional; details: read-out: Activity
[39] = test system: HeLa; experiment: Induction of p53-independent apoptosis in human HeLa cells assessed as dead cells at 20 uM after 24 hrs by Annexin-V-FITC/propidium iodide double staining based flow cytometry (reference value: 3.89 +/- 0.3%); assay type: functional

Chain of Cellular tumor antigen p53 (Mus musculus) (P02340 whole entry): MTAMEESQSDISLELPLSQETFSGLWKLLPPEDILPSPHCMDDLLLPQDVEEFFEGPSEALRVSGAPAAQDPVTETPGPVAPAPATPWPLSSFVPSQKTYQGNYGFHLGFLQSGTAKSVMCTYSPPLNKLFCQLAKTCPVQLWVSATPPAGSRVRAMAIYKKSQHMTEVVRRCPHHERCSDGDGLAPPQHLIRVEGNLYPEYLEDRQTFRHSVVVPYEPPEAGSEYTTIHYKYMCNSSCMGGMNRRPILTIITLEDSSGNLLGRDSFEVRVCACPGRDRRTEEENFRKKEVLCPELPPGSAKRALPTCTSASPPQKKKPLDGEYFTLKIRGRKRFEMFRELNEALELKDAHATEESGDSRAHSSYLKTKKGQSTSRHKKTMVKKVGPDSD

SMILES | inhibition [1] | IC50 [2] [µM] | IC50 [3] [µM] | IC50 [4] [µM] | INCC50 [5] [µM] | Ratio [6] | viability at 24 h, 2.5 µM [8] [%] | Activity [9] [%] | Activity [10] [%] | Activity [11] [%] | viability at 24 h, 5 µM [12] [%] | Activity [13] [%] | Activity [14] [%] | Activity [15] [%] | viability at 2.5 µM [16] [%] | Activity [17] [%] | Activity [18] [%] | Activity [19] [%] | viability at 5 µM [20] [%] | Activity [21] [%] | other results
COC1=CC(=O)c2c(O)ccc(O)c2C1=O | Active | 1.8 | 2.16 | 2.49 | 0.73 | 2.97 | – | – | – | – | – | – | – | – | – | – | – | – | – | – | –
CO[C@H]1O[C@H](CO)[C@@H](O)[C@H](O)[C@H]1O | inactive | > 200 | > 200 | > 200 | >200 | – | – | – | – | – | – | – | – | – | – | – | – | – | – | – | Activity [7]: Non-toxic
COC1=CC(=O)c2cccc(O)c2C1=O | Active | 0.96 | 1.04 | 1.48 | 0.61 | 1.7 | – | – | – | – | – | – | – | – | – | – | – | – | – | – | –
CO[C@H]1O[C@H](COC2=CC(=O)c3cccc(O)c3C2=O)[C@@H](O)[C@H](O)[C@H]1O | Active | 2.34 | 2.82 | 4.92 | 1.47 | 1.92 | 91.3 | 2.63 | 74.65 | 1.06 | 21.2 | 3.07 | 27.57 | 9.27 | 54.8 | 8.37 | 18.51 | 32.74 | 24.7 | 24.08 | Activity [22]: 4.81%; Activity [23]: 1.28%
CO[C@H]1O[C@H](COC2=CC(=O)c3c(O)cccc3C2=O)[C@@H](O)[C@H](O)[C@H]1O | Active | 5.2 | 5.22 | 6.54 | 1.68 | 3.11 | 94.3 | 2.35 | 15.33 | 1.93 | 79.4 | 3.36 | 10.42 | 1.44 | 84.7 | 3.47 | 13.09 | 1.38 | 82.8 | 2.73 | Activity [24]: 82.93%; Activity [25]: 2.01%; viability at 24 h, 10 µM [26]: 13.3%; Activity [27]: 1.76%; Activity [28]: 32.33%; Activity [29]: 26.07%; viability at 10 µM [30]: 20.1%; Activity [31]: 21.48%; Activity [22]: 2.77%; Activity [23]: 0.62%
CO[C@H]1O[C@H](COC2=CC(=O)c3c(O)ccc(O)c3C2=O)[C@@H](O)[C@H](O)[C@H]1O | Active | 7.54 | 7.89 | 8.47 | 4.03 | 1.96 | 91.7 | 2.99 | 1.8 | 2.96 | 88.8 | 0.4 | 8.28 | 1.55 | 87.4 | 2.8 | 6.44 | 1.35 | 89.5 | 2.67 | Activity [24]: 7.41%; Activity [25]: 1.91%; viability at 24 h, 10 µM [26]: 87.5%; Activity [27]: 3.17%; Activity [32]: 40.96%; Activity [33]: 13.91%; viability at 24 h, 20 µM [34]: 13.4%; Activity [35]: 31.75%; Activity [28]: 7.99%; Activity [29]: 1.74%; viability at 10 µM [30]: 87.5%; Activity [31]: 2.77%; Activity [36]: 14.06%; Activity [37]: 24.44%; viability at 20 µM [38]: 30.1%; Activity [39]: 31.42%; Activity [22]: 1.84%; Activity [23]: 2.46%
